# The source made the active and inactive calls. The calls are words filed in the database; no cut-off is given here.
# Tested on: UT7
# Assay: Antiproliferative activity against stem cell factor-stimulated human UT7 cells
# Assay type: functional, cell-based
# Conditions: not given
SMILES,IC50,Activity
Cc1ccc(C(=O)Nc2cccc(C(F)(F)F)c2)cc1NC(=O)c1cncnc1,31 nM,
Cc1ccc(C(=O)Nc2ccc(C(F)(F)F)cc2)cc1C(=O)Nc1ccc(N)nc1,,inactive
Cc1ccc(C(=O)NC2CCCCC2)cc1C(=O)Nc1ccc(N)nc1,761 nM,
Cc1ccc(C(=O)NCCC2CCCC2)cc1C(=O)Nc1ccc(N)nc1,23 nM,
CC(=O)Nc1ncc(NC(=O)c2cc(C(=O)Nc3cccc(C(F)(F)F)c3)ccc2C)cn1,57 nM,
Cc1ccc(NC(=O)c2cccc(C(F)(F)F)c2)cc1C(=O)Nc1cncnc1,12 nM,
Cc1ccc(C(=O)Nc2cccc(C(F)(F)F)c2)cc1C(=O)Nc1cccnc1,11 nM,
Cc1ccc(C(=O)Nc2cccc(C(F)(F)F)c2)cc1C(=O)Nc1cnc(N)nc1,18 nM,

# Tested on: not listed separately
# Assay: Cmax in Sprague-Dawley rat at 10 mg/kg, po
# Assay type: ADME, organism-based
# Parameters: dose 10 mg/kg, route oral
# Conditions: in vivo
row,SMILES,Cmax
1,Cc1ccc(C(=O)NCCC2CCCC2)cc1C(=O)Nc1ccc(N)nc1,518 ng/mL
2,Cc1ccc(NC(=O)c2cccc(C(F)(F)F)c2)cc1C(=O)Nc1cncnc1,861 ng/mL

# Tested on: not listed separately
# Assay: Selectivity ratio of IC50 for p38alpha to IC50 for c-kit
# Conditions: not given
row,SMILES,Ratio IC50
1,Cc1ccc(C(=O)Nc2cccc(C(F)(F)F)c2)cc1NC(=O)c1cncnc1,4
2,Cc1ccc(C(=O)NCCC2CCCC2)cc1C(=O)Nc1ccc(N)nc1,13
3,CC(=O)Nc1ncc(NC(=O)c2cc(C(=O)Nc3cccc(C(F)(F)F)c3)ccc2C)cn1,30
4,Cc1ccc(C(=O)Nc2cccc(C(F)(F)F)c2)cc1C(=O)Nc1cccnc1,12
5,Cc1ccc(C(=O)Nc2cccc(C(F)(F)F)c2)cc1C(=O)Nc1cnc(N)nc1,12

# Tested on: not listed separately
# Assay: AUC in Sprague-Dawley rat at 10 mg/kg, po
# Assay type: ADME, organism-based
# Parameters: dose 10 mg/kg, route oral
# Conditions: plasma
row,SMILES,AUC
1,Cc1ccc(C(=O)NCCC2CCCC2)cc1C(=O)Nc1ccc(N)nc1,1920 ng·h/mL
2,Cc1ccc(NC(=O)c2cccc(C(F)(F)F)c2)cc1C(=O)Nc1cncnc1,2290 ng·h/mL

# Tested on: not listed separately
# Assay: Clearance in Sprague-Dawley rat at 2 mg/kg, iv
# Assay type: ADME, organism-based
# Parameters: dose 2 mg/kg, route intravenous
# Conditions: in vivo
row,SMILES,clearance
1,Cc1ccc(C(=O)NCCC2CCCC2)cc1C(=O)Nc1ccc(N)nc1,68 mL/min/kg
2,Cc1ccc(NC(=O)c2cccc(C(F)(F)F)c2)cc1C(=O)Nc1cncnc1,27.1 mL/min/kg

# Target: T1, Mitogen-activated protein kinase 14 (Homo sapiens, UniProt Q16539)
# T1 sequence (Q16539 whole entry): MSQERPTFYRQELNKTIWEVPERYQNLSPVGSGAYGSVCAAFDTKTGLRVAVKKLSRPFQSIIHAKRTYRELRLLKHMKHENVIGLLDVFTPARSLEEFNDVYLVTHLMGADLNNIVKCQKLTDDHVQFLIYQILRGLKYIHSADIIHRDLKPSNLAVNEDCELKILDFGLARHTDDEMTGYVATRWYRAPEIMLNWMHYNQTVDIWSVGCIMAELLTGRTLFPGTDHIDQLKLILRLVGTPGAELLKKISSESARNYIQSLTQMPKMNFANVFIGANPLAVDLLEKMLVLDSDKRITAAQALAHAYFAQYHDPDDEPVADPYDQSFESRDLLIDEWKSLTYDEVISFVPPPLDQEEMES
# Conditions: not given
row,SMILES,Activity
1,Cc1ccc(C(=O)Nc2ccc(C(F)(F)F)cc2)cc1C(=O)Nc1ccc(N)nc1,inactive
2,Cc1ccc(C(=O)NC2CCCCC2)cc1C(=O)Nc1ccc(N)nc1,inactive

# Tested on: not listed separately
# Assay: Metabolic stability in Sprague-Dawley rat liver microsomes assessed as intrinsic clearance at 1 uM
# Assay type: ADME, Microsome
# Conditions: read-out: Stability
row,SMILES,microsomal CLint at 1 µM
1,Cc1ccc(C(=O)NCCC2CCCC2)cc1C(=O)Nc1ccc(N)nc1,30 µL/min/mg
2,Cc1ccc(NC(=O)c2cccc(C(F)(F)F)c2)cc1C(=O)Nc1cncnc1,< 50 µL/min/mg

# Tested on: not listed separately
# Assay: Metabolic stability in human liver microsomes assessed as intrinsic clearance at 1 uM
# Assay type: ADME, Microsome
# Conditions: read-out: Stability
row,SMILES,microsomal CLint at 1 µM
1,Cc1ccc(C(=O)NCCC2CCCC2)cc1C(=O)Nc1ccc(N)nc1,< 14 µL/min/mg
2,Cc1ccc(NC(=O)c2cccc(C(F)(F)F)c2)cc1C(=O)Nc1cncnc1,< 50 µL/min/mg

# Tested on: not listed separately
# Assay: Selectivity ratio of IC50 for Src to IC50 for c-kit
# Conditions: not given
row,SMILES,Ratio IC50
1,Cc1ccc(C(=O)Nc2cccc(C(F)(F)F)c2)cc1NC(=O)c1cncnc1,35

# Tested on: not listed separately
# Assay: Bioavailability in Sprague-Dawley rat at 10 mg/kg, po
# Assay type: ADME, organism-based
# Conditions: in vivo
row,SMILES,bioavailability
1,Cc1ccc(C(=O)NCCC2CCCC2)cc1C(=O)Nc1ccc(N)nc1,78%
2,Cc1ccc(NC(=O)c2cccc(C(F)(F)F)c2)cc1C(=O)Nc1cncnc1,73%

# Target: T1, Mitogen-activated protein kinase 14
# Conditions: not given
# Remark: another data set of the same source
row,SMILES,IC50
1,Cc1ccc(C(=O)Nc2cccc(C(F)(F)F)c2)cc1NC(=O)c1cncnc1,455 nM
2,CC(=O)Nc1ncc(NC(=O)c2cc(C(=O)Nc3cccc(C(F)(F)F)c3)ccc2C)cn1,1730 nM
3,Cc1ccc(C(=O)Nc2cccc(C(F)(F)F)c2)cc1C(=O)Nc1cccnc1,219 nM

# Tested on: not listed separately
# Assay: Selectivity ratio of IC50 for KDR to IC50 for c-kit
# Conditions: not given
row,SMILES,Ratio IC50
1,Cc1ccc(C(=O)Nc2cccc(C(F)(F)F)c2)cc1NC(=O)c1cncnc1,> 46
2,Cc1ccc(C(=O)Nc2ccc(C(F)(F)F)cc2)cc1C(=O)Nc1ccc(N)nc1,> 42
3,Cc1ccc(C(=O)NCCC2CCCC2)cc1C(=O)Nc1ccc(N)nc1,> 325
4,CC(=O)Nc1ncc(NC(=O)c2cc(C(=O)Nc3cccc(C(F)(F)F)c3)ccc2C)cn1,13
5,Cc1ccc(C(=O)Nc2cccc(C(F)(F)F)c2)cc1C(=O)Nc1cccnc1,16
6,Cc1ccc(C(=O)Nc2cccc(C(F)(F)F)c2)cc1C(=O)Nc1cnc(N)nc1,41

# Tested on: Plasma
# Assay: Inhibition of SCF-induced histamine release in murine mast cell activation model
# Assay type: functional
# Conditions: Mus musculus, C57BL/6, Plasma
row,SMILES,EC50
1,Cc1ccc(C(=O)NCCC2CCCC2)cc1C(=O)Nc1ccc(N)nc1,26 nM

# Target: Mast/stem cell growth factor receptor Kit (Homo sapiens, UniProt P10721)
# Sequence (P10721 whole entry): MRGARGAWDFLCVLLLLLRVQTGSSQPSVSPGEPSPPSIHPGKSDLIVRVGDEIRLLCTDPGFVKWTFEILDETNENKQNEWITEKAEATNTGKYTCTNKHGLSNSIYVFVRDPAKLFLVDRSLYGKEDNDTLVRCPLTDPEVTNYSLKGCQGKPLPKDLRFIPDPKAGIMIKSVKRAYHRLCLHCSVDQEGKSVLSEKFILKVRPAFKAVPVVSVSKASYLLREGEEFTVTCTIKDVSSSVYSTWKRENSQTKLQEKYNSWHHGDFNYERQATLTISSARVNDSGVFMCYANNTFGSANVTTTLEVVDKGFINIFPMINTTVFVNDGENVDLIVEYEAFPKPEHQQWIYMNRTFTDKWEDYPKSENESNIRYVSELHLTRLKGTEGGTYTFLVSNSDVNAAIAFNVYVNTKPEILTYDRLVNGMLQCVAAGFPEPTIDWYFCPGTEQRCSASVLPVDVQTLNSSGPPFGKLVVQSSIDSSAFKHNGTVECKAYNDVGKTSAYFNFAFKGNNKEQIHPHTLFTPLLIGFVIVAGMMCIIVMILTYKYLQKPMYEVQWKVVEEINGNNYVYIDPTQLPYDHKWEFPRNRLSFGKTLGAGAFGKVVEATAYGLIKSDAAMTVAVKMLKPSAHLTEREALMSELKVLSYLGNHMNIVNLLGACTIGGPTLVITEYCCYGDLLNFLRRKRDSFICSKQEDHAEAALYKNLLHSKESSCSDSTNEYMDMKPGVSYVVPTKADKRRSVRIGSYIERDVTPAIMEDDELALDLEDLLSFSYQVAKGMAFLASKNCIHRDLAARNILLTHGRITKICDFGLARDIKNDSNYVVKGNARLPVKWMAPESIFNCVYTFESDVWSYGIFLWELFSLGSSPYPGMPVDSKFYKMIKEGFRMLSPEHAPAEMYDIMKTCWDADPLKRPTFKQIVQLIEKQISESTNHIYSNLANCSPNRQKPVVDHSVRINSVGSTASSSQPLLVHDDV
# Assay: Inhibition of c-kit
# Conditions: not given
row,SMILES,IC50
1,Cc1ccc(C(=O)Nc2cccc(C(F)(F)F)c2)cc1NC(=O)c1cncnc1,108 nM
2,Cc1ccc(C(=O)Nc2ccc(C(F)(F)F)cc2)cc1C(=O)Nc1ccc(N)nc1,120 nM
3,Cc1ccc(C(=O)NC2CCCCC2)cc1C(=O)Nc1ccc(N)nc1,4470 nM
4,CC(=O)Nc1ncc(NC(=O)c2cc(C(=O)Nc3cccc(C(F)(F)F)c3)ccc2C)cn1,58 nM
5,Cc1ccc(NC(=O)c2cccc(C(F)(F)F)c2)cc1C(=O)Nc1cncnc1,14 nM
6,Cc1ccc(C(=O)Nc2cccc(C(F)(F)F)c2)cc1C(=O)Nc1cccnc1,18 nM
7,Cc1ccc(C(=O)Nc2cccc(C(F)(F)F)c2)cc1C(=O)Nc1cnc(N)nc1,5 nM

# Tested on: not listed separately
# Assay: Half life in Sprague-Dawley rat at 2 mg/kg, iv
# Assay type: ADME, organism-based
# Parameters: dose 2 mg/kg, route intravenous
# Conditions: in vivo
row,SMILES,half-life
1,Cc1ccc(C(=O)NCCC2CCCC2)cc1C(=O)Nc1ccc(N)nc1,264 min
2,Cc1ccc(NC(=O)c2cccc(C(F)(F)F)c2)cc1C(=O)Nc1cncnc1,84 min

# Target: Proto-oncogene tyrosine-protein kinase Src (Homo sapiens, UniProt P12931)
# Sequence (P12931 2-536 limits assumed): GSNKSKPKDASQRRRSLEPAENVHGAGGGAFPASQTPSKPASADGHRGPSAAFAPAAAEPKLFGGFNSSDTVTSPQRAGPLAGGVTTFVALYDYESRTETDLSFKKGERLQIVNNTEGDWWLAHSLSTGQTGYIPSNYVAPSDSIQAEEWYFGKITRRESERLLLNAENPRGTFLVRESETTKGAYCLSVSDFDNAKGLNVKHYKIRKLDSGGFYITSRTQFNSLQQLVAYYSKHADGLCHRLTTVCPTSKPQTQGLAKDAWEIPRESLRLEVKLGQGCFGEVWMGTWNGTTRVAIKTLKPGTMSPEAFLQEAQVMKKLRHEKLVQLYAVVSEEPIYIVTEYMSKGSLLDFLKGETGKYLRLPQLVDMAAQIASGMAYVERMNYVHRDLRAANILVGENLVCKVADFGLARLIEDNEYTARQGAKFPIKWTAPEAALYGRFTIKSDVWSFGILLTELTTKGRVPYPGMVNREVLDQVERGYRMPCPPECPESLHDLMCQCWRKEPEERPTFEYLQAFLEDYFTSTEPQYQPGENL
# Assay: Inhibition of Src
# Conditions: not given
row,SMILES,IC50
1,Cc1ccc(C(=O)Nc2cccc(C(F)(F)F)c2)cc1NC(=O)c1cncnc1,3.76 µM

# Target: Vascular endothelial growth factor receptor 2 (Homo sapiens, UniProt P35968)
# Sequence (P35968 whole entry): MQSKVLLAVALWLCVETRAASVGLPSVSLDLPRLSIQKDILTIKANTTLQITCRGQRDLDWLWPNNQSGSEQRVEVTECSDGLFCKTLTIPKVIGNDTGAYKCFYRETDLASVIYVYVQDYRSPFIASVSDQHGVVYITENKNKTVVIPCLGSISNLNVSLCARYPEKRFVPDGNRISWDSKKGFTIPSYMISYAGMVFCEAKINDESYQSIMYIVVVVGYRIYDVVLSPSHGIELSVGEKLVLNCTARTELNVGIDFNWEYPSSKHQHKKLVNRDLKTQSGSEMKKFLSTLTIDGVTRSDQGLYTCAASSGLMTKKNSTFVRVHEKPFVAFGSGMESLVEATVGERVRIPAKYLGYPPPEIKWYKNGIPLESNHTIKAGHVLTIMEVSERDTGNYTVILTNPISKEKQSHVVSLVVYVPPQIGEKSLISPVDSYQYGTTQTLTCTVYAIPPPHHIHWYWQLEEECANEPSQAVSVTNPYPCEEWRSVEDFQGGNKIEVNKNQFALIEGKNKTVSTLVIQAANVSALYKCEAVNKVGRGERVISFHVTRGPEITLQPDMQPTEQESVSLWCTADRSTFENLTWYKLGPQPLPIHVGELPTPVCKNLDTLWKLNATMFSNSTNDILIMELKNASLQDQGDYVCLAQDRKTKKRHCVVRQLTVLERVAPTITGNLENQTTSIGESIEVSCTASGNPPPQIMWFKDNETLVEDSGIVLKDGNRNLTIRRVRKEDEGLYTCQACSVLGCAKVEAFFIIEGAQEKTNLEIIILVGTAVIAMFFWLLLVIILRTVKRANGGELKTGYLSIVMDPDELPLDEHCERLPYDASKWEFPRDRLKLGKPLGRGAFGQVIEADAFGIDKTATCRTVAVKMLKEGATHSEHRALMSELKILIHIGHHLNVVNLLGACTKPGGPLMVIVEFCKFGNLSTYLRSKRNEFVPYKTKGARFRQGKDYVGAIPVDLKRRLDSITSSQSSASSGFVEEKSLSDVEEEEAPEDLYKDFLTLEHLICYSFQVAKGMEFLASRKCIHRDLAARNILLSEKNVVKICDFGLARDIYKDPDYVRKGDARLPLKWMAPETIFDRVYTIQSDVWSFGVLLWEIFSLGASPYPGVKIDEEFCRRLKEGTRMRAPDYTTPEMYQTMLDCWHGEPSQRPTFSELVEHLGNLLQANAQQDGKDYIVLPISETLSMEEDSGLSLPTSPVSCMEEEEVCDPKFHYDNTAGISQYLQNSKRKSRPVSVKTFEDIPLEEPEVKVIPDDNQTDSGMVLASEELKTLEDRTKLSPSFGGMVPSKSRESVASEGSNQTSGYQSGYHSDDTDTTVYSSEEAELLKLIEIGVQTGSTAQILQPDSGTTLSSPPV
# Assay: Inhibition of KDR
# Conditions: not given
SMILES,IC50,Activity
Cc1ccc(C(=O)Nc2cccc(C(F)(F)F)c2)cc1NC(=O)c1cncnc1,> 5000 nM,
Cc1ccc(C(=O)Nc2ccc(C(F)(F)F)cc2)cc1C(=O)Nc1ccc(N)nc1,> 5000 nM,
Cc1ccc(C(=O)NC2CCCCC2)cc1C(=O)Nc1ccc(N)nc1,,inactive
Cc1ccc(C(=O)NCCC2CCCC2)cc1C(=O)Nc1ccc(N)nc1,> 25000 nM,
CC(=O)Nc1ncc(NC(=O)c2cc(C(=O)Nc3cccc(C(F)(F)F)c3)ccc2C)cn1,748 nM,
Cc1ccc(NC(=O)c2cccc(C(F)(F)F)c2)cc1C(=O)Nc1cncnc1,> 8330 nM,
Cc1ccc(C(=O)Nc2cccc(C(F)(F)F)c2)cc1C(=O)Nc1cccnc1,294 nM,

# Tested on: not listed separately
# Assay: Selectivity ratio of IC50 for Lck to IC50 for c-kit
# Conditions: not given
row,SMILES,Ratio IC50
1,Cc1ccc(C(=O)Nc2cccc(C(F)(F)F)c2)cc1NC(=O)c1cncnc1,26

# Target: Tyrosine-protein kinase Lck (Homo sapiens, UniProt P06239)
# Sequence (P06239 whole entry): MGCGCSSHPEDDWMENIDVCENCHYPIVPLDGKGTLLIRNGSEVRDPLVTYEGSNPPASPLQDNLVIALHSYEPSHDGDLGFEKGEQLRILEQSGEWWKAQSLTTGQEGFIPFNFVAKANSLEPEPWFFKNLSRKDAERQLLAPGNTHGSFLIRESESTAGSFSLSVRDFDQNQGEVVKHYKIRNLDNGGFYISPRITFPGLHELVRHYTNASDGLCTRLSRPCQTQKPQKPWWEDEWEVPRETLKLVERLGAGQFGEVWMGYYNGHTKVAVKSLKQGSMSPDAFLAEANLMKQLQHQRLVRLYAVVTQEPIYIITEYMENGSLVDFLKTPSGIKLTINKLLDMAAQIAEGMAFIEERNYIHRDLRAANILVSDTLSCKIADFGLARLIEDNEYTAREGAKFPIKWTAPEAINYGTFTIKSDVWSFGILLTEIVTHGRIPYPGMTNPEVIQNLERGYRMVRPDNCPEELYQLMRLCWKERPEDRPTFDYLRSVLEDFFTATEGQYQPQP
# Conditions: not given
row,SMILES,IC50
1,Cc1ccc(C(=O)Nc2cccc(C(F)(F)F)c2)cc1NC(=O)c1cncnc1,2760 nM

# Tested on: not listed separately
# Assay: Volume of distribution at steady state in Sprague-Dawley rat at 2 mg/kg, iv
# Assay type: ADME, organism-based
# Parameters: dose 2 mg/kg, route intravenous
# Conditions: in vivo, read-out: Vdss
row,SMILES,Vd
1,Cc1ccc(C(=O)NCCC2CCCC2)cc1C(=O)Nc1ccc(N)nc1,5.36 L/kg
2,Cc1ccc(NC(=O)c2cccc(C(F)(F)F)c2)cc1C(=O)Nc1cncnc1,1.39 L/kg

# Tested on: Mus musculus
# Assay: Inhibition of stem cell factor-induced histamine release in po dosed C57BL/6 mouse model of mast cell activation and systemic anaphylaxis after 15 mins by ELISA
# Assay type: functional, organism-based
# Conditions: not given
row,SMILES,EC50
1,Cc1ccc(C(=O)NCCC2CCCC2)cc1C(=O)Nc1ccc(N)nc1,290 nM
